Holding throughout (test): NCI anticancer screen, dose series, 48 h
The test system of test [1] is LOX IMVI melanoma.
In test [2] the test system is A498 renal.
For test [3], the system named is RXF 393 renal.
The test system of test [4] is KM12 colon.
The subject of test [5] is CCRF-CEM leukemia.
For test [6], the system named is MALME-3M melanoma.
Test [7] has as its system SF-295 CNS.
Test [8] deals with 786-0 renal.
Test [9] concerns SK-OV-3 ovarian.
For test [10], the system named is OVCAR-3 ovarian.

SMILES strings stand for the structures.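 Interpolation was linear, between the two tested concentrations surrounding the appropriate level; five concentrations were tested over 48 hours in 96-well plates. GI50 is the concentration that inhibits growth by half. The concentration for full growth arrest is given as TGI.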 Where only a bound is given, the exact number is not on record here.

`O=[N+]([O-])c1ccc(Sc2c3ccccc3nc3cc(Cl)ccc23)cc1`: the GI50 in test [1], in test [2], in [4], in test [6], in test [7] and in test [8] was greater than 100 µM throughout. Moreover, the GI50 in [9] and in test [10] was greater than 100 µM throughout. In addition, the TGI in test [1], in test [2], in [3], in test [4], in test [5] and in test [6] was greater than 100 µM in each case. For the same molecule, the TGI in [7], in test [8], in test [9] and in test [10] was greater than 100 µM each time.
Take `COc1ccc2[nH]c3c(c2c1)[C@H](C)C[C@@H]1C(=O)N(c2ccccc2)C(=O)[C@H]31`: the TGI in [1] is greater than 100 µM; in test [2], 64.9 µM; in test [3], 53.1 µM; in test [4], 41.9 µM; in test [5] it was greater than 100 µM; in test [6], 79.8 µM. Also, the TGI in test [7] was 70.9 µM; in test [8], 48.5 µM; in test [9], 46 µM; in [10] it was 56.1 µM.
Consider `CN(C)C(=S)/N=c1\ssc(=S)n1Cc1ccncc1`, for which the TGI in test [1] worked out at 39.9 µM; in [2], 73.8 µM; in test [3], 70 µM; in [4] it was 16.8 µM; in [5], 57 µM; in test [6], 50.2 µM. In addition, the TGI worked out at 83.8 µM in test [7], 66 µM in test [8], 72.2 µM in test [9] and 32.9 µM in [10].
As to `CCOC(=O)/C(C#N)=C\C=C(/Cl)c1ccc(Cl)cc1`, the GI50 in [1] is 4.82 µM; in [2], 32.3 µM; in [3], 21.6 µM; in test [4] it was 20 µM; in test [5], 0.484 µM; in test [6], 18.6 µM. Further, the GI50 in [7] is 19 µM; in test [8], 19.4 µM; in test [9], greater than 46.8 µM; in test [10], 7.76 µM. Also, the TGI in test [1] was 18.6 µM; in test [2], greater than 79.3 µM; in [3], 45.9 µM; in test [4], 45.8 µM; in [5] it was greater than 100 µM; in [6] it was 40.5 µM. For the same molecule, the TGI was 38.1 µM in [7], 37.4 µM in test [8], greater than 85.4 µM in [9] and 28.4 µM in test [10].
Consider `O=C1OCC2=C1C(c1ccccc1)c1cc3c(cc1N2CCO)OCO3` (configuration not stated), for which the GI50 in test [1] is 7 µM; in test [2], 3.38 µM; in test [3], 8.03 µM; in [4] it was 2.37 µM; in [5] it was 4.54 µM; in [6] it was greater than 50 µM. For the same molecule, the GI50 in test [7] is 1.25 µM; in test [8], 3.54 µM; in [9], 8.28 µM; in test [10], 1.15 µM. In addition, the TGI in test [1] was greater than 50 µM; in test [2], greater than 50 µM; in test [3], 35.7 µM; in test [4] it was greater than 50 µM; in [5] it was greater than 50 µM; in [6] it was greater than 50 µM. Moreover, the TGI in test [7] was 3.53 µM; in test [8], greater than 50 µM; in [9], greater than 50 µM; in [10], 2.6 µM.
As for `O=C(O)c1ccc(C2C(=O)N[C@@H]3CCC[C@H]23)cc1` (some centres not stated), the TGI in test [1], in [2], in test [3], in [4], in test [5] and in [6] was greater than 100 µM each time. The TGI in test [7], in test [8], in test [9] and in test [10] was greater than 100 µM in each case.
On to `C=C1C(=O)O[C@H]2[C@H]1CC/C(C=Nc1c(N)cc(C(F)(F)F)cc1Br)=C\CC[C@@]1(C)O[C@@H]21`, for which the GI50 in [1] was 1.4 µM; in test [2], 2.03 µM; in test [3], 1.59 µM; in [4] it was 1.8 µM; in test [5], 0.33 µM; in [6], 1.71 µM. The GI50 was 2.66 µM in test [7], 2.14 µM in test [8], 6.56 µM in test [9] and 1.29 µM in test [10]. In addition, the TGI in test [1] was determined as 2.74 µM; in test [2] it was 4.8 µM; in test [3] it was 3.11 µM; in test [4] it was 3.97 µM; in [5] it was 11.2 µM; in test [6] it was 3.34 µM. Besides, the TGI in test [7] was determined as 7.96 µM; in test [8], 3.91 µM; in test [9], 18.9 µM; in test [10], 2.65 µM.
Consider `C(=N\Nc1nnn(Cc2ccccc2)n1)/c1ccccc1`, for which the GI50 in [1] is 6 µM; in test [2] it was 5.76 µM; in test [3], 2.58 µM; in [4], 0.905 µM; in test [5], 1.71 µM; in [6], 4.64 µM. The GI50 is 3.44 µM in test [7], 8.54 µM in test [8], 3.29 µM in test [9] and 2.26 µM in [10]. For the same molecule, the TGI in test [1] is greater than 100 µM; in [2], 55.3 µM; in [3], 20.2 µM; in [4], greater than 100 µM; in test [5] it was greater than 47.5 µM; in test [6] it was greater than 82.7 µM. Besides, the TGI in test [7] is 56.3 µM; in test [8] it was greater than 100 µM; in test [9], 34.7 µM; in test [10] it was 7.95 µM.
Take `COc1ccc(C(=O)c2ccc([As]=O)cc2)cc1` (configuration not stated): the GI50 in test [1] was 0.0237 µM; in [2], 0.164 µM; in test [3], 0.059 µM; in test [4], 0.0801 µM; in [5], 0.0296 µM; in test [6], 0.0281 µM. The GI50 in test [7] is 0.146 µM; in [8] it was 0.0605 µM; in test [9], 0.181 µM; in [10] it was 0.0345 µM. The TGI is 0.075 µM in [1]; 0.305 µM in [2]; 0.188 µM in test [3]; 0.219 µM in test [4]; 0.171 µM in test [5]; 0.0861 µM in test [6]. Besides, the TGI in test [7] came out at 0.285 µM; in test [8], 0.191 µM; in test [9], 0.346 µM; in [10], 0.114 µM.
Regarding `CN(C)CCNC(=O)Cn1ccc(=O)c2c([N+](=O)[O-])cccc21`, the TGI in [1], in test [2], in test [3], in [4], in test [5] and in test [6] was greater than 100 µM in each case. Besides, the TGI in test [7], in [8], in test [9] and in test [10] was greater than 100 µM in each case.
On to `C=CC(OCC)(OCC)OCC`, for which the TGI in test [1], in test [2], in [3], in test [4], in test [5] and in test [6] was greater than 100 µM each time. Besides, the TGI was greater than 100 µM in [7], 58.7 µM in [8], greater than 100 µM in test [9] and greater than 100 µM in test [10].
`CCNC(=O)c1noc(-c2cc(C(C)C)c(O)cc2O)c1-c1ccc(CN2CCOCC2)cc1`: the GI50 in [1] was 0.0159 µM; in [2], 0.0418 µM; in [3], 0.0257 µM; in test [4] it was 0.0203 µM; in test [5], 0.0321 µM; in [6], 0.025 µM. The GI50 is 0.0287 µM in test [7], 1.98 µM in test [8], less than 0.01 µM in [9] and 0.0529 µM in test [10]. Moreover, the TGI in test [1] was 0.0765 µM; in [2], 17.5 µM; in test [3] it was 17.8 µM; in test [4] it was 0.0741 µM; in test [5], greater than 75.4 µM; in test [6] it was 12.1 µM. For the same molecule, the TGI in test [7] stood at 11.2 µM; in test [8], 31.5 µM; in test [9], 22.3 µM; in [10] it was 19.1 µM.
Regarding `CC(=O)N1CCC2(c3ccccc3N(C(C)=O)C2c2ccc(O)cc2)C1C(=O)O` (configuration not stated), the TGI in test [1], in [2], in test [3], in test [4], in [5] and in [6] was greater than 100 µM in each case. Also, the TGI in test [7], in [8], in test [9] and in test [10] was greater than 100 µM in each case.
For `Cc1nc(C(N)=S)sc1C(=O)/C=C/c1c(O)ccc2ccccc12`, the TGI in test [1] is 73.6 µM; in test [2], greater than 100 µM; in test [3] it was 98.5 µM; in [4], greater than 93.1 µM; in [5], 54.5 µM; in test [6], greater than 100 µM. Moreover, the TGI in [7] is greater than 100 µM; in test [8] it was greater than 100 µM; in test [9], greater than 100 µM; in test [10], greater than 84.3 µM.
Regarding `C=C1C(=O)O[C@H]2[C@H]1CC/C(COC(=O)NCC(C)c1ccc(CC(C)C)cc1)=C\CC[C@@]1(C)O[C@@H]21` (some centres not stated), the GI50 in test [1] was 0.506 µM; in [2], 4.36 µM; in test [3], 0.559 µM; in test [4], 3.53 µM; in [5], 0.644 µM; in test [6], 0.926 µM. The GI50 is 4.44 µM in test [7], 0.582 µM in test [8], 5.94 µM in [9] and 0.625 µM in test [10]. The TGI was 1 µM in test [1]; 8.68 µM in [2]; 1.17 µM in test [3]; 8.24 µM in [4]; 3.61 µM in test [5]; 2.89 µM in [6]. The TGI in [7] was 8.69 µM; in test [8], 1.1 µM; in test [9], 11 µM; in [10] it was 1.27 µM.
Turning to `Nc1ccc(/C=C/C(=O)NCc2cc3cc(-c4ccc(C(=O)N5CCC(F)(F)CC5)cc4)cc(-c4ccc(F)cc4)c3o2)cn1`, the GI50 was greater than 77.5 µM in [1]; greater than 100 µM in test [2]; 37.8 µM in test [3]; 1.21 µM in test [4]; 0.083 µM in test [5]; greater than 100 µM in [6]. The GI50 is 40.3 µM in [8], greater than 100 µM in [9] and greater than 39.1 µM in test [10]. Besides, the TGI in test [1], in test [2], in [3], in [4], in test [5] and in test [6] was greater than 100 µM in each case. Moreover, the TGI in test [7], in test [8], in test [9] and in test [10] was greater than 100 µM in each case.
As for `O=C(N/N=C/c1ccccc1O)c1ccccc1`, the GI50 in test [1] was 1.47 µM; in [2], 7.28 µM; in test [3], 2.68 µM; in test [4], 4.1 µM; in [5], 0.35 µM; in [6] it was 4.26 µM. The GI50 in test [7] is 1.1 µM; in test [8], 0.339 µM; in test [9] it was 5.14 µM; in test [10] it was 0.669 µM. The TGI is 10.9 µM in test [1]; greater than 100 µM in [2]; 50.9 µM in test [3]; greater than 100 µM in test [4]; 8.3 µM in [5]; 46.7 µM in [6]. Besides, the TGI was 52.1 µM in test [7], 1.83 µM in test [8], greater than 100 µM in test [9] and greater than 100 µM in test [10].
Take `C/C(=N/NC(=O)C[N+](C)(C)C)C(CN(C)C)C(=O)Nc1ccccc1` (configuration not stated): the TGI in [1], in [2], in test [3], in test [4], in test [5] and in test [6] was greater than 100 µM each time. For the same molecule, the TGI in test [7], in [8], in test [9] and in [10] was greater than 100 µM throughout.

Values taken from PubChem BioAssay (NCI).
